Experimental data from ChEMBL document CHEMBL6177959, “Design, synthesis and evaluation of novel carboline-triazole hybrids as promising antimalarial agents” (Eur J Med Chem, 2025).
The source made the active and inactive calls. The rule behind the calls is not given here.

Columns and labels:
Plasmodium yoelii [1] = experiment: Antimalarial activity against Plasmodium yoelii N67 infected in female Swiss mouse model assessed as reduction in parasitic growth at 100 mg/kg, po administered for 3 days and measured on day 28 by Giemsa staining based analysis; format: functional, organism-based; conditions: time 28.0 day
[2] = Stability of the compound in mouse plasma assessed as compound remaining measured after 120 mins by HPLC analysis relative to control; format: ADME, cell-free; conditions: read-out: Stability
[3] = Selectivity index, ratio of CC50 for cytotoxicity against human HepG2 cells to IC50 for antimalarial activity against chloroquine-sensitive Plasmodium falciparum 3D7 infected in human erythrocytes assessed as reduction in parasite growth incubated for 72 hrs by SYBR green dye fluorimetric assay; format: toxicity, cell-based; conditions: read-out: Ratio CC50/IC50
[4] = Resistance index, ratio of IC50 for antimalarial activity against […] infected in human erythrocytes to IC50 for antimalarial activity against chloroquine-sensitive Plasmodium falciparum 3D7 infected in erythrocytes; format: functional
Plasmodium falciparum [5] = experiment: Induction of morphological changes in asexual blood stage Plasmodium falciparum assessed as appearance of compact structure at 1 uM incubated for 24 hrs by Geimsa-staining based light microscopic analysis; format: functional, organism-based
[6] = Cytotoxicity against human HepG2 cells; format: toxicity, cell-based
Plasmodium yoelii [7] = experiment: Antimalarial activity against Plasmodium yoelii N67 infected in female Swiss mouse model assessed as inhibition of parasitic growth at 100 mg/kg, po measured on day 10 relative to control; format: functional; parameters: scale not given: the % may be the effect or the level left; conditions: time 10 day
[8] = AUC in male Swiss mouse at 100 mg/kg, po by LC-MS/MS analysis; format: ADME, organism-based; conditions: in vivo
Plasmodium falciparum [9] = experiment: Induction of morphological changes in asexual blood stage Plasmodium falciparum assessed as lack of prominent periphery in trophozoites at 1 uM incubated for 24 hrs by Geimsa-staining based light microscopic analysis; format: functional, organism-based
Plasmodium yoelii [10] = experiment: Antimalarial activity against Plasmodium yoelii N67 infected in female Swiss mouse model assessed as mean survival time at 100 mg/kg administered orally (reference value: 11 days); format: functional; conditions: route po
Plasmodium yoelii [11] = experiment: Antimalarial activity against Plasmodium yoelii N67 infected in female Swiss mouse model assessed as inhibition of parasitic growth at 100 mg/kg, po measured on day 7 relative to control; format: functional; parameters: scale not given: the % may be the effect or the level left; conditions: time 7 day
[12] = MRT in male Swiss mouse at 100 mg/kg, po by LC-MS/MS analysis; format: ADME, organism-based; conditions: in vivo
[13] = Tmax in male Swiss mouse at 100 mg/kg, po by LC-MS/MS analysis; format: ADME, organism-based; conditions: in vivo
Plasmodium yoelii [14] = experiment: Antimalarial activity against Plasmodium yoelii N67 infected in female Swiss mouse model assessed as inhibition of parasitic growth at 100 mg/kg, po administered for 4 days and measured on day 28 by Giemsa staining based analysis; format: functional, organism-based; conditions: time 4.0 day
Plasmodium yoelii [15] = experiment: Antimalarial activity against Plasmodium yoelii N67 infected in female Swiss mouse model assessed as mean survival time at 100 mg/kg, po measured on day 24 relative to control; format: functional; conditions: N67, 576 h, time 24 day
Plasmodium berghei = experiment: Antimalarial activity against GFP-luciferase expressing liver stage Plasmodium berghei sporozoites infected in human HepG2 cells assessed as inhibition of parasitic growth by luminescence based analysis; format: functional, organism-based
Plasmodium falciparum [16] = experiment: Antimalarial activity against […] infected in human erythrocytes assessed as reduction in parasite growth incubated for 72 hrs by SYBR green dye fluorimetric assay; format: functional, organism-based; conditions: K1, Erythrocyte
Plasmodium falciparum [17] = experiment: Antimalarial activity against chloroquine-sensitive Plasmodium falciparum 3D7 infected in human erythrocytes assessed as reduction in parasite growth incubated for 72 hrs by SYBR green dye fluorimetric assay; format: functional, organism-based; conditions: 3D7, Erythrocyte
[18] = Half life in male Swiss mouse at 100 mg/kg, po by LC-MS/MS analysis; format: ADME, organism-based; conditions: in vivo
Plasmodium falciparum [19] = experiment: Induction of morphological changes in asexual blood stage Plasmodium falciparum assessed as appearance of fragmentation at 1 uM incubated for 24 hrs by Geimsa-staining based light microscopic analysis; format: functional, organism-based
Plasmodium falciparum [20] = experiment: Induction of morphological changes in asexual blood stage Plasmodium falciparum assessed as appearance of healthy rings at 1 uM incubated for 48 to 72 hrs by Geimsa-staining based light microscopic analysis; format: functional, organism-based; conditions: time 48-72 hrs
Plasmodium falciparum [21] = experiment: Antimalarial activity against […] infected in human erythrocytes assessed as inhibition of parasitic growth at 5 uM incubated for 72 hrs by SYBR green dye fluorimetric assay relative to control; format: functional, K1, Erythrocyte; parameters: scale not given: the % may be the effect or the level left
[22] = Stability of the compound in simulated physiological fluid at pH 7.4 assessed as compound remaining measured after 120 mins by HPLC analysis relative to control; format: physicochemical; conditions: read-out: Stability
[23] = Stability of the compound in simulated intestinal fluid at pH 6.8 assessed as compound remaining measured after 120 mins by HPLC analysis relative to control; format: physicochemical; conditions: read-out: Stability
[24] = Volume of distribution in male Swiss mouse at 100 mg/kg, po by LC-MS/MS analysis; format: ADME, organism-based; conditions: in vivo
[25] = Clearance in male Swiss mouse at 100 mg/kg, po by LC-MS/MS analysis; format: ADME, organism-based; conditions: in vivo
Plasmodium falciparum [26] = experiment: Induction of morphological changes in asexual blood stage Plasmodium falciparum assessed as appearance of condensed cytoplasm at 1 uM incubated for 24 hrs by Geimsa-staining based light microscopic analysis; format: functional, organism-based
[27] = Cmax in male Swiss mouse at 100 mg/kg, po by LC-MS/MS analysis; format: ADME, organism-based; conditions: in vivo
Plasmodium yoelii [28] = experiment: Antimalarial activity against Plasmodium yoelii N67 infected in female Swiss mouse model assessed as mean survival time at 100 mg/kg, po measured on day 17 relative to control; format: functional; conditions: N67, 408 h, time 17 day
Plasmodium falciparum [29] = experiment: Induction of morphological changes in asexual blood stage Plasmodium falciparum assessed as appearance of schizonts at 1 uM incubated for 48 to 72 hrs by Geimsa-staining based light microscopic analysis; format: functional, organism-based; conditions: time 48-72 hrs
Plasmodium falciparum [30] = experiment: Antimalarial activity against Plasmodium falciparum W2; format: functional, organism-based
Plasmodium yoelii [31] = experiment: Antimalarial activity against Plasmodium yoelii N67 infected in female Swiss mouse model assessed as suppression in parasitic growth at 20 mg/kg, po measured on day 4 relative to control; format: functional
Plasmodium yoelii [32] = experiment: Antimalarial activity against Plasmodium yoelii N67 infected in female Swiss mouse model assessed as suppression in parasitic growth at 20 mg/kg, po measured on day 7 relative to control; format: functional
Plasmodium yoelii [33] = experiment: Antimalarial activity against Plasmodium yoelii N67 infected in female Swiss mouse model assessed as parasite survival at 20 mg/kg, po measured after 7 days relative to control; format: functional; conditions: N67, 168 h, time 7 day
Plasmodium yoelii [34] = experiment: Antimalarial activity against Plasmodium yoelii N67 infected in female Swiss mouse model assessed as suppression in parasitic growth at 10 mg/kg, po measured on day 7 relative to control; format: functional; conditions: time 7 day
Plasmodium yoelii [35] = experiment: Antimalarial activity against Plasmodium yoelii N67 infected in female Swiss mouse model assessed as mean survival time at 10 mg/kg administered orally; format: functional; conditions: route po
Plasmodium yoelii [36] = experiment: Antimalarial activity against Plasmodium yoelii N67 infected in female Swiss mouse model assessed as mean survival time at 20 mg/kg administered orally; format: functional; conditions: route po
Plasmodium yoelii [37] = experiment: Antimalarial activity against Plasmodium yoelii N67 infected in female Swiss mouse model assessed as suppression in parasitic growth at 10 mg/kg, po measured on day 4 relative to control; format: functional; conditions: time 4 day
Plasmodium falciparum [38] = experiment: Antimalarial activity against Plasmodium falciparum 3D7; format: functional, organism-based

For `O=C(NCc1cn(-c2cccc(C(F)(F)F)c2)nn1)c1cc2c([nH]c3ccccc32)c(-c2ccc(F)cc2)n1`, the Activity (Plasmodium yoelii [1]) was “Active”, the remaining at 2 h [2] was at least 60% and the selectivity ratio at 72 h [3] was 232. For the same molecule, the “Ratio IC50” value [4] was 0.48, the Activity (Plasmodium falciparum [5]) was “Active; Irreversible Structural Deformations Observed” and the CC50 [6] was 195 µM. The Activity (Plasmodium yoelii [7]) was 35.93%, the AUC [8] was 112 µg·h/mL and the Activity (Plasmodium falciparum [9]) was “Active; Irreversible Structural Deformations Observed”. The MST (Plasmodium yoelii [10]) was 17 days, the Activity (Plasmodium yoelii [11]) was 42.55% and the MRT [12] was 7.3 h. The Tmax [13] was 4 h, the Activity (Plasmodium yoelii [14]) was “Moderate_effect” and the survival at 100 mg/kg (Plasmodium yoelii [15]) was 20%. The IC50 (Plasmodium berghei) was 5.88 µM, the IC50 (Plasmodium falciparum [16]) was 400 nM and the IC50 (Plasmodium falciparum [17]) was 840 nM. The t1/2 [18] was 3.74 h, the Activity (Plasmodium falciparum [19]) was “Active; Irreversible Structural Deformations Observed” and the Activity (Plasmodium falciparum [20]) was “inactive”. For the same molecule, the Activity (Plasmodium falciparum [21]) was 95.63%, the remaining at 2 h [22] was at least 60% and the remaining at 2 h [23] was at least 60%. The Vd [24] was 4972.07 mL/kg, the CL [25] was 919.41 mL/h/kg and the Activity (Plasmodium falciparum [26]) was “Active; Irreversible Structural Deformations Observed”. For the same molecule, the Cmax [27] was 15.17 ng/mL, the survival at 100 mg/kg (Plasmodium yoelii [28]) was 60% and the Activity (Plasmodium falciparum [29]) was “inactive”.
In the case of `COc1cc(-c2nccc3c2[nH]c2ccccc23)cc(OC)c1OC`, the IC50 (Plasmodium falciparum [30]) is reported as 510 nM.
`CCN(CC)CCCC(C)Nc1ccnc2cc(Cl)ccc12` (centres undefined) [CHLOROQUINE] showed an Activity (Plasmodium yoelii [31]) of 99%, an Activity (Plasmodium yoelii [32]) of 91% and a survival at 20 mg/kg (Plasmodium yoelii [33]) of 60%. For the same molecule, the Activity (Plasmodium yoelii [34]) was 88%, the MST (Plasmodium yoelii [35]) was 16 days and the MST (Plasmodium yoelii [36]) was over 28 days. The Activity (Plasmodium yoelii [37]) was 97.8%.
Work on `Clc1ccc(-n2cc(-c3cncc4ccccc34)nn2)cc1` yielded an IC50 (Plasmodium falciparum [38]) of 36.9 µM.
